From patent US7273856B2, “Linear basic compounds having NK-2 antagonist activity and formulations thereof” (Menarini Ricerche S.P.A., priority 2001, dated 2007) come the findings set out here.

For this experiment, the target named is T1, human NK-2 receptor (Homo sapiens, UniProt P21452).
T1 construct: expressed in transfected cells; host or cells: CHO (Chinese hamster ovary) cells, membranes
T1 sequence (P21452 1-398): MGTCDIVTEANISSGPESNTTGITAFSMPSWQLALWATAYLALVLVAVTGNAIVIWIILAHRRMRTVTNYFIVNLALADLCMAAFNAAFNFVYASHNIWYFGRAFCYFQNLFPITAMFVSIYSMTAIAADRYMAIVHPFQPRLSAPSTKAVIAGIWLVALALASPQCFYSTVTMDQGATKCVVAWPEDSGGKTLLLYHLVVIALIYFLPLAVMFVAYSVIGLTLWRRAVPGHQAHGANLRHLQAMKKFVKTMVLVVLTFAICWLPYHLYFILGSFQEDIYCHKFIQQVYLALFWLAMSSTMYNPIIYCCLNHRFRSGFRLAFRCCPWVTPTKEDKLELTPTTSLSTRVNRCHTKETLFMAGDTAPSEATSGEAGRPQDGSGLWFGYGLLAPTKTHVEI
Description: binding test, affinity for the human NK-2 receptor, competition with [125I]NKA on transfected CHO cell membranes. Conditions: CHO cell membranes transfected with NK-2 receptor of human ileum; [125I]NKA 100 pM; 30 min, 20° C. The protocol: The evaluation of the antagonist activity on NK-2 receptors has been assessed by binding and functional tests according to that already described in literature in relation to NK-2 antagonists.
The test substances have been tested within a concentration range from 0.01 nM to 10 nM. At the end of the incubation time (30 min, 20° C.) the samples have been filtered and radioactivity has been determined using a gamma-counter.

Where a name gives a salt, the structure may show the parent alone.

For orientation: Ki means the equilibrium dissociation constant of an inhibitor or competing ligand from its target. A lower Ki goes with higher affinity. `N#CCN1CCC(CCNC(=O)[C@@H](Cc2ccccc2)NC(=O)C2(NC(=O)c3cc4ccccc4s3)CCCC2)CC1` [Example 87, Benzo[b]thiophene-2-carboxylic acid (1-{1(R)-[2-(1-cyanomethyl-piperidin-4-yl)-ethylcarbamoyl]-2-phenyl-ethylcarbamoyl}-cyclopentyl)-amide TFA salt]: the Ki was 1.26 nM.
Same read-out and setting: the value for `O=C(NC1(C(=O)N[C@H](Cc2ccccc2)C(=O)NCC2CCN(CC3CCOCC3)CC2)CCCC1)c1cc2cc(Br)ccc2o1` [Example 123, 5-Bromo-benzofuran-2-carboxylic acid [1-(2-phenyl-1R-{[1-(tetrahydro-pyran-4-ylmethyl)-piperidin-4-ylmethyl]-carbamoyl}-ethylcarbamoyl)cyclopentyl]-amide] was 0.1 nM; that for `O=C(NC1(C(=O)N[C@H](Cc2ccccc2)C(=O)NCC2CCN(CC3CCOCC3)CC2)CCCC1)c1cc2cc(Cl)ccc2o1` [Example 122, 5-Chloro-benzofuran-2-carboxylic acid [1-(2-phenyl-1R-{[1-(tetrahydro-pyran-4 ylmethyl)-piperidin-4-ylmethyl]-carbamoyl}-ethylcarbamoyl)cyclopentyl]-amide] was 0.1 nM; that for `O=C(NC1(C(=O)N[C@H](Cc2ccccc2)C(=O)NCCN2CCN(CC3CCOCC3)CC2)CCCC1)c1cc2ccccc2s1` [Example 101, Benzo[b]thiophene-2-carboxylic acid [1-(2-phenyl-1(R)-{2-[4-(tetrahydro-pyran-4-ylmethyl)-piperazin-1-yl]-ethylcarbamoyl}-ethylcarbamoyl)-cyclopentyl)-amide TFA salt] was 1.26 nM.
The same measure, in the same setting: with `CC(C)(C)c1cccc2cc(C(=O)NC3(C(=O)N[C@H](Cc4ccccc4)C(=O)NCC4CCN(CC5CCOCC5)CC4)CCCC3)oc12` [Example 124, 7-tert-Butyl-benzofuran-2-carboxylic acid [1-(2-phenyl-1R-{[1-(tetrahydro-pyran-4 ylmethyl)-piperidin-4-ylmethyl]-carbamoyl}-ethylcarbamoyl)-cyclopentyl]-amide] the figure was 0.1 nM; with `NC1CCCCC1NC(=O)C1CCC(NC(=O)C(Cc2ccccc2)NC(=O)C2(NC(=O)c3cc4ccccc4s3)CCCCC2)C1` (single isomer, unassigned) [Example 25], 0.251 nM; with `O=C(NC1(C(=O)N[C@H](Cc2ccccc2)C(=O)NCC2CCN(CC3CCOCC3)CC2)CCCC1)c1cc2cc(F)ccc2o1` [Example 121, 5-Fluoro-benzofuran-2-carboxylic acid [1-(2-phenyl-1R-{[1-(tetrahydro-pyran-4-ylmethyl)-piperidin-4-ylmethyl]-carbamoyl}-ethylcarbamoyl)-cyclopentyl]-amide], 0.501 nM.
A word on the pKi: it is the negative decadic logarithm of the Ki, by convention in mol/L. The compound “Benzo[b]thiophene-2-carboxylic acid [1-(2-phenyl-1(R)-{[1-(tetrahydro-pyran-4-yl)-piperidin-4-ylmethyl]-carbamoyl}-ethylcarbamoyl)-cyclopentyl]-amide [Example 73]” gave a pKi of 9.3.
Same read-out and setting: with `NC1CCCCC1NC(=O)[C@@H]1C[C@@H](NC(=O)[C@@H](Cc2ccccc2)NC(=O)C2(NC(=O)c3cc4ccccc4s3)CCCC2)CN1` (relative stereo) [Example 36] the figure was 10.6; with `NCCCCCNC(=O)C1CCCC(NC(=O)[C@@H](Cc2ccccc2)NC(=O)C2(NC(=O)c3cc4ccccc4s3)CCCCC2)C1.O=C(O)C(F)(F)F` (stereo in doubt) [Example 22, N^γ{N^α[N^α(benzo[b]thiophen-2-ylcarbonyl)-1-aminocyclohexan-1-carboxy]-D-phenylalanyl}-3-cis-aminocyclohexan-1-carboxylic-acid-N-(5-aminopentyl)-amide trifluoroacetate salt], 9.2.
In turn, `O=C(NC1(C(=O)N[C@H](Cc2ccccc2)C(=O)NCC2CCN(CC3CCSCC3)CC2)CCCC1)c1cc2ccccc2s1` [Example 82, Benzo[b]thiophene-2-carboxylic acid [1-(2-phenyl-1(R)-{[1-(tetrahydro-thiopyran-4-ylmethyl)-piperidin-4-ylmethyl]-carbamoyl}-ethylcarbamoyl)cyclopentyl]-amide] had a Ki of 0.1 nM.
As to `Cc1cc2oc(C(=O)NC3(C(=O)N[C@H](Cc4ccccc4)C(=O)NCC4CCN(CC5CCOCC5)CC4)CCCC3)c(C)c2cc1C` [Example 148, 3,5,6-Trimethyl-benzofuran-2-carboxylic acid [1-(2-phenyl-1-{[1R-(tetrahydro-pyran-4-ylmethyl)-piperidin-4-ylmethyl]-carbamoyl}-ethylcarbamoyl)-cyclopentyl]-amide], affinity was put at a Ki of 0.316 nM.
As for `CC[C@@](C)(NC(=O)C=Cc1ccc(C)cc1)C(=O)N[C@H](Cc1ccccc1)C(=O)N[C@H]1CC[C@@H](C(=O)N[C@H]2CCCC[C@@H]2N)C1.O=C(O)C(F)(F)F` [Example 15, N^γ{N^α[N^α(4-methylcinnamoyl)-(R)-α-methyl-α-ethylglycyl]-D-phenylalanyl}-(1R,3S)-3-amino cyclopentane-1-carboxylic-acid-N-((1S,2S)-2-aminocyclohexyl) amide trifluoroacetate salt], the pKi turned out to be 10.0.
Take `O=C(NC1(C(=O)N[C@H](Cc2ccccc2)C(=O)NCC2CCN(CC3COCOC3)CC2)CCCC1)c1cc2cc(Cl)ccc2o1` [Example 91, 5-Chloro-benzofuran-2-carboxylic acid (1-{1(R)-[(1-[1,3]dioxan-5-ylmethyl-piperidin-4-ylmethyl)-carbamoyl]-2-phenyl-ethylcarbamoyl}-cyclopentyl)-amide]: the Ki was 1 nM.
`Nc1ccc2cc(C(=O)NC3(C(=O)N[C@H](Cc4ccccc4)C(=O)NCCCN4CCOCC4)CCCC3)sc2c1` [Example 115, 6-Amino-benzo[b]thiophene-2-carboxylic acid {1-[1R-(3-morpholin-4-yl-propylcarbamoyl)-2-phenyl-ethylcarbamoyl]-cyclopentyl]-amide] showed a Ki of 3.16 nM.
The compound `O=C(NC1(C(=O)N[C@H](Cc2ccccc2)C(=O)NCC2CCN(CC3CCOCC3)CC2)CCCC1)c1cc2cc(I)ccc2o1` [Example 127, 5-Iodo-benzofuran-2-carboxylic acid [1-(2-phenyl-1R-{[1-(tetrahydro-pyran-4-ylmethyl)-piperidin-4-ylmethyl]-carbamoyl}-ethylcarbamoyl)-cyclopentyl]-amide] showed a Ki of 0.0794 nM. Against the preceding compound, the Ki is about 40-fold lower.
On the same count and under the same terms, the value for `NC1CCCCC1NC(=O)C1CCC(NC(=O)C(Cc2ccccc2)NC(=O)C2(NC(=O)c3cc4ccccc4s3)CCCC2)C1` (single isomer, unassigned) [Example 37] was 0.0126 nM; that for `O=C(NC1(C(=O)N[C@H](Cc2ccccc2)C(=O)NCC2CCN(CC3CCCCC3)CC2)CCCC1)c1cc2ccccc2s1` [Example 79, Benzo[b]thiophene-2-carboxylic acid (1-{1(R)-[(1-cyclohexylmethyl-piperidin-4 ylmethyl)-carbamoyl]-2-phenyl-ethylcarbamoyl}-cyclopentyl)-amide] was 0.0631 nM.
With `Cc1ccc(C=CC(=O)NC2(C(=O)NC(Cc3ccc(C)cc3)C(=O)NC3CCC(C(=O)NC4CCCCC4N)C3)CCCC2)cc1` [Example 18, N^γ{N^α[N^α(4-(methyl)cynnamoyl)-1-aminocyclopentan-1-carboxy]-R-3[4-methyl)phenyl]alanyl}-(1R,3S)-3-aminocyclopentane-1-carboxylic-acid-N-((1S,2S)-2-aminocyclohexyl)amide hydrochloride salt], the Ki is 0.794 nM.
In turn, `CN1CCN(C(=O)[C@@H]2CC[C@H](NC(=O)[C@@H](Cc3ccccc3)NC(=O)C3(NC(=O)c4cc5ccccc5s4)CCCC3)C2)CC1` [Example 33, N^α[N^α(benzo[b]thiophen-2-ylcarbonyl)-1-aminocyclopentan-1-carboxy]-D-phenylalanine amide-N-[(1S,3R)-3-(4-(methyl)piperazin-1-yl)carbonyl)cyclopentane] showed an inhibition constant Ki of 0.631 nM.
The compound `Cc1ccc(C[C@@H](NC(=O)C2(NC(=O)c3cc4ccccc4n3C)CCCC2)C(=O)N[C@H]2CC[C@@H](C(=O)N[C@H]3CCCC[C@@H]3N)C2)cc1` [Example 17, N^γ{N^α[N^α(N-(methyl)indol-2-ylcarboxy)-1-aminocyclopentan-1-carboxy]-R-3-(4-methyl)phenyl)alanyl}-(1R,3S)-3-aminocyclopentane-1-carboxylic-acid-N-((1S,2S)-2-aminocyclohexyl)amide hydrochloride salt] gave a Ki of 2.51 nM.
On the same count and under the same terms, the value for `O=C(NC1(C(=O)N[C@H](Cc2ccccc2)C(=O)NCC2CCN(C3CCOCC3)CC2)CCCC1)c1ccc2cc(Br)ccc2c1` [Example 80, 6-Bromo-naphthalene-2-carboxylic acid [1-(2-phenyl-1(R)-{[1-(tetrahydro-pyran-4-yl)-piperidin-4-ylmethyl]-carbamoyl}-ethylcarbamoyl)-cyclopentyl]-amide] was 0.251 nM; that for `O=C(NC1(C(=O)N[C@H](Cc2ccccc2)C(=O)NCCCN2CCOCC2)CCCCC1)c1cc2ccc(Br)cc2s1` [Example 109, 6-Bromo-benzo[b]thiophene-2-carboxylic acid {1-[1R-(3-morpholin-4-yl-propylcarbamoyl)-2-phenyl-ethylcarbamoyl]-cyclohexyl}-amide] was 0.1 nM.
